Experimental findings from ChEMBL document CHEMBL1150919, “The inhibition of the reverse transcriptase of HIV-1 by the natural sulfoglycolipids from cyanobacteria: contribution of different moieties to their high potency” (J Nat Prod, 1998) are described below.

The structures appear in SMILES notation. pIC50: −log10 of the molar value.

Assay [1] addresses Human immunodeficiency virus type 1 reverse transcriptase (Human immunodeficiency virus 1, UniProt Q72547). The assay is described as follows: (§1) Inhibition of HIV1 reverse transcriptase activity assessed as residual enzyme activity by poly(rA)n.oligo(dT)12-18-directed incorporation of [3H]dTTP into DNA.
For assay [2], the system named is Human immunodeficiency virus 1. Description: Inhibition of HIV1 RNase H activity assessed as residual enzyme activity by poly(rA)n.oligo(dT)12-18-directed incorporation of [3H]dTTP into DNA at 100 uM relative to control.
In assay [3] the target is Human immunodeficiency virus type 1 reverse transcriptase (Human immunodeficiency virus 1) (UniProt Q72547). The description is as §1.
The nature of assay [4]: Inhibition of HIV2 reverse transcriptase-mediated DNA polymerase activity. More on the design: species or system Human immunodeficiency virus 2.

The pIC50 is the IC50 on a negative log10 scale, so that one unit is a factor of ten. A word on the IC90: it is the concentration needed for an effect of 90%.

Take `OC[C@@H](O)CO[C@H]1O[C@H](CO)[C@@H](O)[C@H](O)[C@H]1O`: the pIC50 in assay [1] was less than 4.00.

Take `CCCCC/C=C\C/C=C\CCCCCCCC(=O)OC[C@H](CO[C@H]1O[C@H](CS(=O)(=O)O)[C@@H](O)[C@H](O)[C@H]1O)OC(=O)CCCCCCCCCCCCCCC`: in assay [2], the Activity was 100%. Further, the IC90 in assay [3] stood at 0.28 µM. Further, the pIC50 in assay [1] is 7.11.

As for `OC[C@@H](O)CO[C@@H]1O[C@H](CO[C@H]2O[C@H](CO)[C@H](O)[C@H](O)[C@H]2O)[C@H](O)[C@H](O)[C@H]1O`, the pIC50 in assay [1] is less than 4.00.

As to `CCCCCCCCCCCCCCCC(=O)OC[C@H](CO[C@H]1O[C@H](CS(=O)(=O)O)[C@@H](O)[C@H](O)[C@H]1O)OC(=O)CCCCCCCCCCCCCCC`, the Activity in assay [2] is 45%. Besides, the IC90 in assay [3] turned out to be 0.465 µM. The pIC50 in assay [1] was 6.95.

Consider `CCCCC/C=C\C/C=C\CCCCCCCC(=O)OC[C@H](CO[C@H]1O[C@H](CS(=O)(=O)O)[C@@H](O)[C@H](OC(=O)CCCCCCCCCCCCCCC)[C@H]1OC(=O)CCCCCCCCCCCCCCC)OC(=O)CCCCCCCCCCCCCCC`, for which, in assay [2], the Activity amounted to 100%. In assay [3], the IC90 worked out at 14 µM. Further, the pIC50 in assay [1] was 5.53.

`OC[C@@H](O)CO[C@@H]1O[C@H](CO)[C@H](O)[C@H](O)[C@H]1O`: the pIC50 in assay [1] is less than 4.00.

As for `CCCCCCCCCCCCCCCC(=O)OC[C@H](CO[C@@H]1O[C@H](CO)[C@H](O)[C@H](O)[C@H]1O)OC(=O)CCCCCCCCCCCCCCC`, the Activity in assay [2] was found to be 100%. The 90% effect concentration (IC90) in assay [3] is more than 100 µM. In assay [1], the pIC50 was less than 4.00.

Turning to `CCCCC/C=C\C/C=C\CCCCCCCC(=O)OC[C@H](CO[C@@H]1O[C@H](CO[C@H]2O[C@H](CO)[C@H](O)[C@H](OC(=O)CCCCCCCCCCCCCCC)[C@H]2O)[C@H](O)[C@H](O)[C@H]1O)OC(=O)CCCCCCCCCCCCCCC`, in assay [2], the Activity amounted to 100%. Besides, in assay [3], the IC90 is more than 100 µM. For the same molecule, the pIC50 in assay [1] was 4.00.

As for `CCCCC/C=C\C/C=C\CCCCCCCC(=O)OC[C@H](CO[C@@H]1O[C@H](CO)[C@H](O)[C@H](O)[C@H]1O)OC(=O)CCCCCCCCCCCCCCC`, the Activity in assay [2] turned out to be 100%. The IC90 in assay [3] was more than 100 µM. Moreover, the pIC50 in assay [1] was 4.42.

Regarding `CCCCCCCC/C=C\CCCCCCCC(=O)OC[C@H](CO[C@H]1O[C@H](CS(=O)(=O)O)[C@@H](O)[C@H](O)[C@H]1O)OC(=O)CCCCCCCCCCCCCCC`, the Activity in assay [2] was 66%. Moreover, the 90% effect concentration (IC90) in assay [3] amounted to 0.076 µM. Besides, the pIC50 was 7.62 in assay [1] and 7.47 in assay [4].

Regarding `O=S(=O)(O)C[C@H]1O[C@H](OC[C@H](O)CO)[C@H](O)[C@@H](O)[C@@H]1O`, the IC90 in assay [3] was more than 100 µM. For the same molecule, the pIC50 in assay [1] is 4.12.

On to `CCCCCCCC/C=C\CCCCCCCC(=O)OC[C@H](CO[C@@H]1O[C@H](CO)[C@H](O)[C@H](O)[C@H]1O)OC(=O)CCCCCCCCCCCCCCC`, for which the Activity in assay [2] came to 100%. In addition, the IC90 in assay [3] was more than 100 µM. For the same molecule, the pIC50 in assay [1] is 4.19.
